Data taken from US20200077648A1, “PHENOXYPHENYLAMIDINES AND THE USE THEREOF AS FUNGICIDES” (priority 2016, published 2020).

Columns and labels:
soy bean plants = test: Plant compatibility test using soy bean plants; format: in vivo; conditions: soy bean young plants sprayed, rate of application of active compound 500 ppm, evaluated 6 days after application; 0% = no damages, 100% = plants totally damaged
Protocol: Plant Compatibility Test Using Soy Bean Plants
Solvent: 24.5 parts by weight of acetone • 24.5 parts by weight of dimethylacetamide Emulsifier: 1 part by weight of alkylaryl polyglycol ether
To produce a suitable preparation of active compound, 1 part by weight of active compound is mixed with the stated amounts of solvent and emulsifier, and the concentrate is diluted with water to the desired concentration. Young plants are sprayed with the preparation of active compound at the stated application rate. The plants are then placed in a greenhouse at approximately 21° C. and a relative atmospheric humidity of approximately 80%. The test is evaluated 6 days after application and comprises plant damages like leaf deformation, chlorosis, necrosis, shoot damage or stunting. 0% means no damages are observed, while 100% means that the plants are totally damaged.

[1] = Log P measurement by HPLC on reversed phase columns (EEC directive 79/831 Annex V.A8; methods [a], [b], [c]); format: physicochemical
Protocol: If more than one Log P value is available within the same method, all the values are given and separated by “+”. […] Lambda-max-values were determined using UV-spectra from 200 nm to 400 nm and the peak values of the chromatographic signals.

[2] = method [a]: LC-UV, acidic range, 0.1% formic acid in water and acetonitrile as eluent (linear gradient 10% to 95% acetonitrile)
[3] = method [a]: LC-UV, acidic range, 0.1% formic acid in water and acetonitrile as eluent
[4] = method [b]: LC-UV, neutral range, 0.001 molar ammonium acetate solution in water and acetonitrile as eluent

| Compound | Necrosis in % (soy bean plants) [%] | LogP [1, 2] | LogP [1, 3] | LogP [1, 4] |
| --- | --- | --- | --- | --- |
| C=C(C)c1cc(N=CN(C)CC)c(C)cc1Oc1ccccc1F [Example 118] | 5 | 1.60^[a] |  |  |
| CCN(C)C=Nc1cc(C(F)(F)F)c(Oc2ccccc2C#N)cc1C [Example 21] | 20 |  | 1.46^[a] |  |
| CCN(C)C=Nc1cc(C)c(Oc2ccccc2C(F)(F)F)cc1C [Example 114] | 5 | 1.69^[a] |  |  |
| CCN(C)C=Nc1cc(I)c(Oc2ccccc2C#N)cc1C [Example 56] | 10 |  | 1.37^[a] |  |
| CCN(C)C=Nc1cc(Cl)c(Oc2cccc(F)c2)cc1C [Example 12] | 5 |  | 1.75^[a] |  |
| CCN(C)C=Nc1cc(I)c(Oc2ccccc2)cc1C [Example 30] | 50 |  | 1.69^[a]; | 5.01^[b] |
| CCN(C)C=Nc1cc(Cl)c(Oc2ccc(F)cc2)cc1C [Example 8] | 0 |  | 1.55^[a] |  |
| CCN(C)C=Nc1cc(Br)c(Oc2ccccc2)cc1C [Example 36] | 40 |  | 1.58^[a]; | 4.79^[b] |
| CCN(C)C=Nc1cc(C(C)C)c(Oc2ccccc2C#N)cc1C [Example 107] | 0 | 1.75^[a] |  |  |
| CCN(C)C=Nc1cc(C)c(Oc2cccc(F)c2)cc1C [Example 2] | 80 |  | 1.50^[a] |  |
| CCN(C)C=Nc1cc(C)c(Oc2cccc(C)c2F)cc1C [Example 20] | 80 |  | 1.69^[a] |  |
| CCN(C)C=Nc1cc(C(F)F)c(Oc2ccccc2F)cc1C [Example 105] | 0 | 1.46^[a] |  |  |
| Cc1cc(Oc2ccccc2C#N)c(C)cc1N=CN(C)C(C)C [Example 71] | 5 | 1.48^[a] |  |  |
| CCN(C)C=Nc1cc(F)c(Oc2ccccc2F)cc1C [Example 65] | 20 |  | 1.34^[a] |  |
| CCN(C)C=Nc1cc(C)c(Oc2cccc(F)c2F)cc1C [Example 19] | 60 |  | 1.49^[a] |  |
| CCN(C)C=Nc1cc(C)c(Oc2ccccc2Cl)cc1C [Example 16] | 30 |  | 1.86^[a] |  |
| CCN(C)C=Nc1cc(C)c(Oc2ccc(F)cc2)cc1Cl [Example 9] | 5 |  | 1.47^[a] |  |
| Cc1cc(Oc2ccccc2F)c(C)cc1N=CN(C)C [Example 66] |  |  | 1.43^[a] |  |
| CCN(C)C=Nc1cc(C(F)F)c(Oc2ccccc2C#N)cc1C [Example 102] | 0 | 1.18^[a] |  |  |
| CCN(C)C=Nc1cc(C)c(Oc2cccc(F)c2C#N)cc1Br [Example 104] |  | 1.58^[a] |  |  |
| CCN(C)C=Nc1cc(Br)c(Oc2ccccc2F)cc1C [Example 42] | 20 |  | 1.55^[a] |  |

| Compound | Necrosis in % (soy bean plants) [%] | LogP [1, 2] | LogP [1, 3] | LogP [1, 4] |
| --- | --- | --- | --- | --- |
| CCN(C)C=Nc1cc(C)c(Oc2ccccc2)cc1C#N [Example 72] |  | 1.53^[a] |  |  |
| CCN(C)C=Nc1cc(C)c(Oc2ccccc2C2CC2)cc1Br [Example 94] |  | 1.84^[a] |  |  |
| CCN(C)C=Nc1cc(C)c(Oc2ccccc2C#N)cc1C(F)F [Example 38] |  |  | 1.55^[a] |  |
| CCN(C)C=Nc1cc(C)c(Oc2ccccc2SC)cc1C [Example 115] |  | 1.55^[a] |  |  |
| CCN(C)C=Nc1cc(C2CC2)c(Oc2ccccc2F)cc1C [Example 52] |  |  | 1.75^[a] |  |
| Cc1cc(Oc2ccccc2C#N)c(I)cc1N=CN(C)C(C)C [Example 426] |  | 1.41^[a] |  |  |
| CCN(C)C=Nc1cc(C)c(Oc2cccc(F)c2C#N)cc1Cl [Example 88] | 20 | 1.35^[a] |  |  |
| C=C(C)c1cc(Oc2ccccc2)c(C)cc1N=CN(C)CC [Example 96] |  | 1.63^[a] |  |  |
| CCN(C)C=Nc1cc(C)c(Oc2cccc(F)c2)cc1Cl [Example 5] | 10 |  | 1.58^[a] |  |
| CCN(C)C=Nc1cc(C)c(Oc2ccccc2)cc1N(C)C [Example 82] |  | 1.58^[a] |  |  |
| Cc1cc(Oc2ccccc2Br)c(C)cc1N=CN(C)C [Example 68] |  | 1.66^[a] |  |  |
| CCN(C)C=Nc1cc(Cl)c(Oc2cccc(Cl)c2)cc1C [Example 48] | 30 |  | 1.83^[a] |  |
| CCN(C)C=Nc1cc(C)c(Oc2ccccc2I)cc1C(F)F [Example 41] |  |  | 1.90^[a] |  |
| Cc1cc(N=CN(C)C(C)C)c(Cl)cc1Oc1ccccc1F [Example 62] |  |  | 1.61^[a] |  |
| CCN(C)C=Nc1cc(C)c(Oc2ccccc2)cc1C1CC1 [Example 51] |  |  | 1.75^[a] |  |
| CCN(C)C=Nc1cc(C)c(Oc2ccccc2SC)cc1Br [Example 103] |  | 1.82^[a] |  |  |
| CCN(C)C=Nc1cc(C)c(Oc2ccccc2C(F)F)cc1Cl [Example 78] |  | 1.55^[a] |  |  |
| CCN(C)C=Nc1cc(C)c(Oc2cc(F)ccc2C#N)cc1Cl [Example 93] | 10 | 1.27^[a] |  |  |
| CCN(C)C=Nc1cc(C)c(Oc2ccccc2[S+](C)[O-])cc1C (stereo not shown) [Example 116] |  | 0.94^[a] |  |  |
| CCc1cc(N=CN(C)CC)c(C)cc1Oc1ccccc1F [Example 106] | 30 | 1.69^[a] |  |  |
| CCN(C)C=Nc1cc(I)c(Oc2ccccc2F)cc1C [Example 55] | 10 |  | 1.58^[a] |  |

| Compound | Necrosis in % (soy bean plants) [%] | LogP [1, 2] | LogP [1, 3] | LogP [1, 4] |
| --- | --- | --- | --- | --- |
| CCN(C)C=Nc1cc(Br)c(Oc2ccccc2C)cc1C [Example 43] |  |  | 1.72^[a] |  |
| CCN(C)C=Nc1cc(C)c(Oc2cccc(Cl)c2)cc1Cl [Example 49] |  |  | 1.84^[a] |  |
| Cc1cc(Oc2ccc(F)cc2)c(C)cc1N=CN(C)C(C)C [Example 4] |  |  | 1.66^[a]; | 5.63^[b] |
| CCN(C)C=Nc1cc(C)c(Oc2ccccc2F)cc1C(=O)N(C)C [Example 117] |  | 1.24^[a] |  |  |
| CCN(C)C=Nc1cc(OC)c(Oc2ccccc2)cc1C [Example 31] | 30 |  | 1.42^[a]; | 3.93^[b] |
| CCN(C)C=Nc1cc(C)c(Oc2ccccc2)cc1C#N [Example 13] |  |  | 1.58^[a]; | 3.78^[b] |
| Cc1cc(N=CN(C)C(C)C)c(Cl)cc1Oc1ccccc1F [Example 7] | 10 |  | 1.80^[a] |  |
| CCN(C)C=Nc1cc(C)c(Oc2ccccc2N(C)C)cc1Cl [Example 76] |  | 0.78^[a] |  |  |
| Cc1cc(Oc2ccccc2Br)c(C)cc1N=CN(C)C(C)C [Example 69] |  | 1.97^[a] |  |  |
| CCN(C)C=Nc1cc(C)c(Oc2ccccc2C(F)(F)F)cc1Cl [Example 90] |  | 1.81^[a] |  |  |
| CCN(C)C=Nc1cc(C(F)(F)F)c(Oc2ccccc2C)cc1C [Example 33] |  |  | 1.96^[a] |  |
| CCN(C)C=Nc1cc(C)c(Oc2ccccc2C(=O)OC)cc1Cl [Example 77] |  | 1.35^[a] |  |  |
| CCN(C)C=Nc1cc(C)c(Oc2ccccc2Cl)cc1C(F)F [Example 39] |  |  | 1.88^[a] |  |
| CCN(C)C=Nc1cc(C)c(Oc2cccc(Cl)c2F)cc1Cl [Example 3] |  |  | 1.88^[a] |  |
| CCN(C)C=Nc1cc(C)c(Oc2ccccc2C2CC2)cc1C [Example 11] |  |  | 2.09^[a] |  |
| CCN(C)C=Nc1cc(C)c(Oc2cccc(F)c2Br)cc1Cl [Example 79] |  | 1.66^[a] |  |  |
| CCN(C)C=Nc1cc(C2CC2)c(Oc2ccccc2F)cc1C [Example 120] | 0 | 1.60^[a] |  |  |
| CCN(C)C=Nc1cc(C)c(Oc2ccccc2N(C)C)cc1Br [Example 100] |  | 1.07^[a] |  |  |
| Cc1cc(Oc2ccccc2F)c(C)cc1N=CN(C)C(C)C [Example 67] | 40 |  | 1.68^[a] |  |
| CCN(C)C=Nc1cc(C)c(Oc2ccccc2N(C)C)cc1C [Example 85] |  | 0.55^[a] |  |  |
| CCN(C)C=Nc1cc(C)c(Oc2cccc(F)c2C#N)cc1C [Example 80] |  | 1.32^[a] |  |  |
